Laboratory results from ChEMBL document CHEMBL1126024, “Di- and triester prodrugs of the varicella-zoster antiviral agent 6-methoxypurine arabinoside” (J Med Chem, 1992).
≈ marks a conversion by molar mass, not a printed value.

Legend:
Rattus norvegicus [1] = organism: Rattus norvegicus; test: (§1) Ester prodrugs: recovery of parent compound in rat urine; format: ADME, organism-based; settings: in vivo
[2] = Solubility (phosphate buffered saline); format: physicochemical; settings: read-out: S
[3] = Ester prodrugs: stability in buffer (pH 7); format: physicochemical
Rattus norvegicus [4] = organism: Rattus norvegicus; test: as §1; format: ADME, organism-based; settings: in vivo; remark: listed apart in the source

| SMILES | Urinary recovery (Rattus norvegicus [1]) | solubility [2] | T1/2 [3] | Urinary recovery (Rattus norvegicus [4]) |
| --- | --- | --- | --- | --- |
| COc1ncnc2c1ncn2[C@@H]1O[C@H](CO)[C@@H](OC(=O)c2ccccc2)[C@@H]1OC(=O)c1ccccc1 | 0.1% | 13 µM (≈ 6.38 µg/mL) | – | – |
| CCCC(=O)OC[C@H]1O[C@@H](n2cnc3c(OC)ncnc32)[C@@H](OC(=O)CCC)[C@@H]1OC(=O)CCC | 0.7% | 102 µM (≈ 50.2 µg/mL) | – | – |
| COc1ncnc2c1ncn2[C@@H]1O[C@H](COC(=O)c2ccc(Cl)cc2)[C@@H](OC(=O)c2ccc(Cl)cc2)[C@@H]1OC(=O)c1ccc(Cl)cc1 | 4.5% | < 5 µM | – | – |
| COc1ncnc2c1ncn2[C@@H]1O[C@H](COC(=O)C(C)(C)C)[C@@H](O)[C@@H]1OC(=O)C(C)(C)C | 15.7% | 1350 µM (≈ 608 µg/mL) | 178 days | – |
| COc1ccc(C(=O)OC[C@H]2O[C@@H](n3cnc4c(OC)ncnc43)[C@@H](OC(=O)c3ccc(OC)cc3)[C@@H]2OC(=O)c2ccc(OC)cc2)cc1 | 4.1% | < 5 µM | – | – |
| COc1ncnc2c1ncn2[C@@H]1O[C@H](CO)[C@@H](OC(C)=O)[C@@H]1OC(C)=O | 19.2% | 172000 µM (≈ 63000 µg/mL) | 19.1 days | – |
| COc1ncnc2c1ncn2[C@@H]1O[C@H](COC(=O)c2ccccc2)[C@@H](OC(=O)c2ccccc2)[C@@H]1OC(=O)c1ccccc1 | 0.9% | 8 µM (≈ 4.76 µg/mL) | – | – |
| COc1ncnc2c1ncn2[C@@H]1O[C@H](COC(=O)c2ccccc2)[C@@H](O)[C@@H]1OC(=O)c1ccccc1 | 5.8% | < 5 µM | – | – |
| COc1ncnc2c1ncn2[C@@H]1O[C@H](COC(=O)c2ccc(C)cc2)[C@@H](OC(=O)c2ccc(C)cc2)[C@@H]1OC(=O)c1ccc(C)cc1 | 5.6% | < 5 µM | – | – |
| CCCCCCCC(=O)O[C@H]1[C@H](OC(=O)CCCCCCC)[C@@H](CO)O[C@H]1n1cnc2c(OC)ncnc21 | 12.6% | 36 µM (≈ 19.2 µg/mL) | – | – |
| CCCCC(=O)OC[C@H]1O[C@@H](n2cnc3c(OC)ncnc32)[C@@H](OC(=O)CCCC)[C@@H]1OC(=O)CCCC | 2.2% | 21 µM (≈ 11.2 µg/mL) | – | – |
| COc1ncnc2c1ncn2[C@@H]1O[C@H](COC(=O)COc2ccccc2)[C@@H](OC(=O)COc2ccccc2)[C@@H]1O | 3.8% | 58 µM (≈ 31.9 µg/mL) | – | – |
| CCC(=O)O[C@H]1[C@H](OC(=O)CC)[C@@H](CO)O[C@H]1n1cnc2c(OC)ncnc21 | 8.7% | 23500 µM (≈ 9270 µg/mL) | 525 days | – |
| COc1ncnc2c1ncn2[C@@H]1O[C@H](COC(=O)C(C)(C)C)[C@@H](OC(=O)C(C)(C)C)[C@@H]1OC(=O)C(C)(C)C | 5.4% | 14 µM (≈ 7.48 µg/mL) | – | – |
| COc1ncnc2c1ncn2[C@@H]1O[C@H](CO)[C@@H](OC(=O)Cc2ccccc2)[C@@H]1OC(=O)Cc1ccccc1 | 2.7% | 204 µM (≈ 106 µg/mL) | – | – |
| CCCCCC(=O)O[C@H]1[C@H](OC(=O)CCCCC)[C@@H](CO)O[C@H]1n1cnc2c(OC)ncnc21 | 4.8% | 140 µM (≈ 67 µg/mL) | – | – |
| COc1ncnc2c1ncn2[C@@H]1O[C@H](CO)[C@@H](OC(=O)c2ccc(C)cc2)[C@@H]1OC(=O)c1ccc(C)cc1 | 0.2% | 5 µM (≈ 2.59 µg/mL) | – | – |
| CCC(=O)OC[C@H]1O[C@@H](n2cnc3c(OC)ncnc32)[C@@H](OC(=O)CC)[C@@H]1OC(=O)CC | 0.8% | 3550 µM (≈ 1600 µg/mL) | 127 days | – |
| COc1ncnc2c1ncn2[C@@H]1O[C@H](CO)[C@@H](OC(=O)C(C)C)[C@@H]1OC(=O)C(C)C | 2.3% | 3300 µM (≈ 1390 µg/mL) | 28.9 days | – |
| COc1ncnc2c1ncn2[C@@H]1O[C@H](COC(=O)C(C)C)[C@@H](OC(=O)C(C)C)[C@@H]1OC(=O)C(C)C | 2.1% | 141 µM (≈ 69.4 µg/mL) | – | – |
| COc1ccc(C(=O)OC[C@H]2O[C@@H](n3cnc4c(OC)ncnc43)[C@@H](OC(=O)c3ccc(OC)cc3)[C@@H]2O)cc1 | 0.2% | 6 µM (≈ 3.3 µg/mL) | – | – |
| COc1ncnc2c1ncn2[C@@H]1O[C@H](COC(=O)C(C)C)[C@@H](OC(=O)C(C)C)[C@@H]1O | 17.7% | 428 µM (≈ 181 µg/mL) | 19.5 days | – |
| COc1ncnc2c1ncn2[C@@H]1O[C@H](COS(C)(=O)=O)[C@@H](OS(C)(=O)=O)[C@@H]1OS(C)(=O)=O | 4.4% | 3220 µM (≈ 1660 µg/mL) | > 70 days | – |

| SMILES | Urinary recovery (Rattus norvegicus [1]) | solubility [2] | T1/2 [3] | Urinary recovery (Rattus norvegicus [4]) |
| --- | --- | --- | --- | --- |
| COc1ncnc2c1ncn2[C@@H]1O[C@H](COS(=O)(=O)c2ccc(C)cc2)[C@@H](OS(=O)(=O)c2ccc(C)cc2)[C@@H]1OS(=O)(=O)c1ccc(C)cc1 | 3% | 5 µM (≈ 3.72 µg/mL) | – | – |
| COc1ncnc2c1ncn2[C@@H]1O[C@H](COC(C)=O)[C@@H](OC(C)=O)[C@@H]1OC(C)=O | 8.3% | 81800 µM (≈ 33400 µg/mL) | 15.2 days | – |
| COc1ncnc2c1ncn2[C@@H]1O[C@H](COC(=O)Cc2ccccc2)[C@@H](OC(=O)Cc2ccccc2)[C@@H]1OC(=O)Cc1ccccc1 | 4.1% | < 5 µM | – | – |
| COc1ncnc2c1ncn2[C@@H]1O[C@H](CO)[C@@H](OC(=O)COc2ccccc2)[C@@H]1OC(=O)COc1ccccc1 | 7.6% | 67 µM (≈ 36.9 µg/mL) | – | – |
| CCCCC(=O)OC[C@H]1O[C@@H](n2cnc3c(OC)ncnc32)[C@@H](OC(=O)CCCC)[C@@H]1O | 15.3% | 1300 µM (≈ 586 µg/mL) | 51.6 days | – |
| CCCC(=O)OC[C@H]1O[C@@H](n2cnc3c(OC)ncnc32)[C@@H](O)[C@@H]1OC(=O)CCC | 11.8% | 422 µM (≈ 178 µg/mL) | – | – |
| CCCC(=O)O[C@H]1[C@H](OC(=O)CCC)[C@@H](CO)O[C@H]1n1cnc2c(OC)ncnc21 | 4.8% | 9600 µM (≈ 4060 µg/mL) | 13.1 days | – |
| COc1ccc(C(=O)O[C@H]2[C@H](OC(=O)c3ccc(OC)cc3)[C@@H](CO)O[C@H]2n2cnc3c(OC)ncnc32)cc1 | 0.2% | 5 µM (≈ 2.75 µg/mL) | – | – |
| CCCCCCC(=O)O[C@H]1[C@H](OC(=O)CCCCCC)[C@@H](CO)O[C@H]1n1cnc2c(OC)ncnc21 | 10.5% | 30 µM (≈ 15.2 µg/mL) | – | – |
| COc1ncnc2c1ncn2[C@@H]1O[C@H](COC(=O)c2ccccc2)C(OC(=O)c2ccccc2)[C@@H]1O (single isomer, unassigned) | 4.3% | 33 µM (≈ 16.2 µg/mL) | – | – |
| CCCCC(=O)OC[C@H]1O[C@@H](n2cnc3c(OC)ncnc32)[C@@H](O)[C@@H]1OC(=O)CCCC | 12.8% | 78 µM (≈ 35.1 µg/mL) | – | – |
| COc1ccc(C(=O)OC[C@H]2O[C@@H](n3cnc4c(OC)ncnc43)[C@@H](O)C2OC(=O)c2ccc(OC)cc2)cc1 (single isomer, unassigned) | 0.2% | 45 µM (≈ 24.8 µg/mL) | – | – |
| COc1ncnc2c1ncn2[C@@H]1O[C@H](CO)[C@@H](OC(=O)C(C)(C)C)[C@@H]1OC(=O)C(C)(C)C | 1.6% | 640 µM (≈ 288 µg/mL) | 72.7 days | – |
| COc1ncnc2c1ncn2[C@@H]1O[C@H](COC(C)=O)[C@@H](O)[C@@H]1OC(C)=O | 10.6% | 7100 µM (≈ 2600 µg/mL) | 22.5 days | – |
| COc1ncnc2c1ncn2[C@@H]1O[C@H](COC(=O)C(C)(C)C)[C@@H](OC(=O)C(C)(C)C)[C@@H]1O | 1.2% | 32 µM (≈ 14.4 µg/mL) | – | – |
| COc1ncnc2c1ncn2[C@@H]1O[C@H](CO)[C@@H](O)[C@@H]1O | 3.8% | 49800 µM (≈ 14100 µg/mL) | – | 25.9% |
| COc1ncnc2c1ncn2[C@@H]1O[C@H](COC(=O)C(C)C)[C@@H](O)[C@@H]1OC(=O)C(C)C | 4.2% | 9110 µM (≈ 3850 µg/mL) | 53.6 days | – |
| CCCCC(=O)O[C@H]1[C@H](OC(=O)CCCC)[C@@H](CO)O[C@H]1n1cnc2c(OC)ncnc21 | 9.1% | 694 µM (≈ 313 µg/mL) | 7.02 days | – |
| COc1ncnc2c1ncn2[C@@H]1O[C@H](COC(=O)Cc2ccccc2)[C@@H](OC(=O)Cc2ccccc2)[C@@H]1O | 1.5% | < 5 µM | – | – |
| COc1ncnc2c1ncn2[C@@H]1O[C@H](COC(C)=O)[C@@H](OC(C)=O)[C@@H]1O | 16.3% | 12300 µM (≈ 4510 µg/mL) | 30.6 days | – |
| COc1ncnc2c1ncn2[C@@H]1O[C@H](COC(=O)COc2ccccc2)[C@@H](OC(=O)COc2ccccc2)[C@@H]1OC(=O)COc1ccccc1 | 4.6% | 22 µM (≈ 15.1 µg/mL) | – | – |
| CCC(=O)OC[C@H]1O[C@@H](n2cnc3c(OC)ncnc32)[C@@H](O)[C@@H]1OC(=O)CC | 11% | 2390 µM (≈ 943 µg/mL) | 30.2 days | – |
